Data reported in patent EP4711369A1, “1H-[1,2,3]TRIAZOLO[4,5-H]QUINAZOLINE COMPOUNDS AS PROTEIN KINASE INHIBITORS” (Chengdu Cynogen Bio-Pharmaceutical Technology Co., Ltd., priority 2023, dated 2024).

Columns and labels:
CDK2/cyclin E = CDK2/cyclin E (Homo sapiens, UniProt P24941); assay: Assay of kinase activity (ADP-Glo); type: biochemical; conditions: kinase inhibitory activity, read-out: CDK2/E1 IC50
Experimental: (§1) CDK/cyclin catalyzes the phosphorylation of a substrate, which concomitantly consumes ATP and produces ADP. The inhibition rate (%) in the presence of a small molecule inhibitor was assessed by measuring the amount of ADP generated in the reaction. The assay compounds were thoroughly mixed by vortexing and then diluted in DMSO to 100× the assay concentration. […] A 2× kinase solution was prepared using a 1× kinase reaction buffer (50 mM Hepes, 10 mM MgCl2, 0.01% Brij35, 2 mM DTT). 2 µL of the kinase solution was transferred to the 384-well assay plate, and the plate was centrifuged at 1000 rpm for 60 seconds in a microplate centrifuge. The plate was incubated at 25 °C in a biochemical incubator for 10 minutes. A 2x mixture of substrate and ATP was prepared in the kinase reaction buffer. Then, 2 µL of the mixture of substrate and ATP was added to the 384-well assay plate. The plate was centrifuged at 1000 rpm for 60 seconds in a microplate centrifuge, and incubated at 25 °C in a biochemical incubator for 60 minutes. 4 µL of ADP-Glo Reagent (Cat. No. V9103, manufacturer: Promega) incubated at 25 °C in a biochemical incubator was added to each well of the 384-well assay plate. The plate was centrifuged at 1000 rpm for 60 seconds in a microplate centrifuge, and incubated at 25 °C in a biochemical incubator for 40 minutes. 8 µL of Detection Reagent incubated at 25 °C in a biochemical incubator was added to each well of the 384-well assay plate. The plate was centrifuged at 1000 rpm for 60 seconds in a microplate centrifuge, and incubated at 25 °C in a biochemical incubator for 40 minutes. Finally, luminescence signals were read using a multifunctional microplate reader (model: PHERAstar FSX, manufacturer: BMG). IC50 values were calculated by nonlinear fitting of the concentration-response curves using GraphPad Prism software.

CDK4/cyclin D1 = CDK4/cyclin D1 (Homo sapiens, UniProt P11802); assay: Assay of kinase activity (ADP-Glo); type: biochemical; conditions: kinase inhibitory activity
Chain of CDK4/cyclin D1 (P11802 whole entry, species assumed): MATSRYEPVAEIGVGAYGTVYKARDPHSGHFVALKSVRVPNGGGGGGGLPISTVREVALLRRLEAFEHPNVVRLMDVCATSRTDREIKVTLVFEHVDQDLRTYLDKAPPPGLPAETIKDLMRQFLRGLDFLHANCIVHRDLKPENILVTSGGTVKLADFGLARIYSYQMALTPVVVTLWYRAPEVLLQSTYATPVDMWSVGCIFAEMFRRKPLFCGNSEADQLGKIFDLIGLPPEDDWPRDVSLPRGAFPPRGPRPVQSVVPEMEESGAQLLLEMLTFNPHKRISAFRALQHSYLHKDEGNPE
Chain of CDK4/cyclin D1 (P24385 whole entry partner, species assumed): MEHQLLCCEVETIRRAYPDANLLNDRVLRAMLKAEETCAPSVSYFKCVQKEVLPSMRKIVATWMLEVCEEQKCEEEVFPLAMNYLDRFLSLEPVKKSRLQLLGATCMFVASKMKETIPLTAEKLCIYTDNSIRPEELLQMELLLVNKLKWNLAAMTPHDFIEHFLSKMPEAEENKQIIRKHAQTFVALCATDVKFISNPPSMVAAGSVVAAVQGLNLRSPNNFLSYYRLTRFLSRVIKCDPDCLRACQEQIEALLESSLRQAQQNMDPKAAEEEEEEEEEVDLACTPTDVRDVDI
Experimental: as §1

CDK9/cyclin T1 = CDK9/cyclin T1 (Homo sapiens, UniProt P50750); assay: Assay of kinase activity (ADP-Glo); type: biochemical; conditions: kinase inhibitory activity
Chain of CDK9/cyclin T1 (P50750 whole entry, species assumed): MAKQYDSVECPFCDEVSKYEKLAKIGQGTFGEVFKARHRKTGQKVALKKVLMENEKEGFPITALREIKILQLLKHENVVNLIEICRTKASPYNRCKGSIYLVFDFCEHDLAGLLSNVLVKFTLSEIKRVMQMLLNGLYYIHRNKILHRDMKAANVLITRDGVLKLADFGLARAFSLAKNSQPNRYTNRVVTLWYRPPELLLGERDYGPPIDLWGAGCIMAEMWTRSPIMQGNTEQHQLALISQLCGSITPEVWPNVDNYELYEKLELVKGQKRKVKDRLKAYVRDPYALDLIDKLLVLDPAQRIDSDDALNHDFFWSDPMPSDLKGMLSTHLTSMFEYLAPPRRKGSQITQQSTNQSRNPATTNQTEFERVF
Chain of CDK9/cyclin T1 (O60563 whole entry partner, species assumed): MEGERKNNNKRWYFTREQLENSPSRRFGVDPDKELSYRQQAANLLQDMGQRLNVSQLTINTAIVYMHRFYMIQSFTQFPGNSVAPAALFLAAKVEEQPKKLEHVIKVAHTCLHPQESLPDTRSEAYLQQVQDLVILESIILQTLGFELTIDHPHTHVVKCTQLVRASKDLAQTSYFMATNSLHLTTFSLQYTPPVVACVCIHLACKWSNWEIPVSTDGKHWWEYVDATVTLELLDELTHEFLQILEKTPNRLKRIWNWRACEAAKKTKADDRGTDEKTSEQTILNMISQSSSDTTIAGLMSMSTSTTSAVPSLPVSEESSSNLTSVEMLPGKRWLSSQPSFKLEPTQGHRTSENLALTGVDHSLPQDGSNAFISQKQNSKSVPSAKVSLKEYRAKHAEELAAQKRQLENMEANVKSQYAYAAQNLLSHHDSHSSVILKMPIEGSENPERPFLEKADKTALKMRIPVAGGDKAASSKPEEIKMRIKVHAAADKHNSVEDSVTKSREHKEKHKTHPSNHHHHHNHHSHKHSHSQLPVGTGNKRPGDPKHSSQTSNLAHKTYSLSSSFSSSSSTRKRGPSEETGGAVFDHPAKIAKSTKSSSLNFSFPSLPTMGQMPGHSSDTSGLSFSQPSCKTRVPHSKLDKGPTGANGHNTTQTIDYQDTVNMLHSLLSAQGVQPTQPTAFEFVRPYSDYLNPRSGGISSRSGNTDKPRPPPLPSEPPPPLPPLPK
Experimental: (§2) CDK/cyclin catalyzes the phosphorylation of a substrate, which concomitantly consumes ATP and produces ADP. The inhibition rate (%) in the presence of a small molecule inhibitor was assessed by measuring the amount of ADP generated in the reaction. The assay compounds were thoroughly mixed by vortexing and then diluted in DMSO to 100× the assay concentration. 40 nL of a compound was transferred to a 384-well assay plate using a nanoliter pipetting system (ECHO® 655 SYSTEM). A 2× kinase solution was prepared using a 1× kinase reaction buffer (50 mM Hepes, 10 mM MgCl2, 0.01% Brij35, 2 mM DTT). 2 µL of the kinase solution was transferred to the 384-well assay plate, and the plate was centrifuged at 1000 rpm for 60 seconds in a microplate centrifuge. The plate was incubated at 25 °C in a biochemical incubator for 10 minutes. A 2x mixture of substrate and ATP was prepared in the kinase reaction buffer. Then, 2 µL of the mixture of substrate and ATP was added to the 384-well assay plate. The plate was centrifuged at 1000 rpm for 60 seconds in a microplate centrifuge, and incubated at 25 °C in a biochemical incubator for 60 minutes. 4 µL of ADP-Glo Reagent (Cat. No. V9103, manufacturer: Promega) incubated at 25 °C in a biochemical incubator was added to each well of the 384-well assay plate. The plate was centrifuged at 1000 rpm for 60 seconds in a microplate centrifuge, and incubated at 25 °C in a biochemical incubator for 40 minutes. 8 µL of Detection Reagent incubated at 25 °C in a biochemical incubator was added to each well of the 384-well assay plate. The plate was centrifuged at 1000 rpm for 60 seconds in a microplate centrifuge, and incubated at 25 °C in a biochemical incubator for 40 minutes. Finally, luminescence signals were read using a multifunctional microplate reader (model: PHERAstar FSX, manufacturer: BMG). IC50 values were calculated by nonlinear fitting of the concentration-response curves using GraphPad Prism software.

CDK6/cyclin D3 = CDK6/cyclin D3 (Homo sapiens, UniProt Q00534); assay: Assay of kinase activity (ADP-Glo); type: biochemical; conditions: kinase inhibitory activity
Chain of CDK6/cyclin D3 (Q00534 whole entry, species assumed): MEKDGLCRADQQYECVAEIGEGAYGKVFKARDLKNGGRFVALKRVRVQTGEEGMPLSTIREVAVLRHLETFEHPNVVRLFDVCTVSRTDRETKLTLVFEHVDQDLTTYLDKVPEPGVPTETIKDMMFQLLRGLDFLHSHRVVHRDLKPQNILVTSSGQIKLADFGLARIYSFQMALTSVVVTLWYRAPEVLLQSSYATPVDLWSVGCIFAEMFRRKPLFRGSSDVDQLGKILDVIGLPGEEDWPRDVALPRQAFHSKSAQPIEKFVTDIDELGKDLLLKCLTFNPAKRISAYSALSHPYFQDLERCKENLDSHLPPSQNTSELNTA
Chain of CDK6/cyclin D3 (P30281 whole entry partner, species assumed): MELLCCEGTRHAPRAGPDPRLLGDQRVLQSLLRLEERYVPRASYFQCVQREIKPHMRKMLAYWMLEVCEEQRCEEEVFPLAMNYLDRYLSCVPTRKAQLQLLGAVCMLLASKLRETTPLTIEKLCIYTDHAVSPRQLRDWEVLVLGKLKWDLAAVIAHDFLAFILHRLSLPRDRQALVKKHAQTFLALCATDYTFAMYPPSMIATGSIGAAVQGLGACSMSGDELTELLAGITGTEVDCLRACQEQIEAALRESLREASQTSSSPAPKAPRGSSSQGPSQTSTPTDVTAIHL
Experimental: as §2

[1] = system: Human ovarian cancer OVCAR3 cells; assay: Assay of cell proliferation (CellTiter-Glo); type: cell-based; conditions: Homo sapiens, OVCAR-3, 144 h, 6 days, read-out: OVCAR3 IC50 of cell proliferation inhibitory activity
Experimental: (§3) Human ovarian cancer OVCAR3 cells were inoculated at 2000 cells/well in a 96-well plate and cultured in RPMI 1640 medium containing 20% FBS at 37 °C and 5% CO2 overnight in an incubator. The next day, the compounds were subjected to a three-fold gradient dilution in DMSO from a peak concentration of 2 mM to give nine concentrations. Then, the compounds were diluted 3:200 in growth medium, and finally diluted 1:3 in the cell culture supernatant to give a culture supernatant containing 0.5% DMSO, with the compounds treatment concentrations ranging from 10 µM to 0.1 nM. The cells and the compounds were incubated at 37 °C and 5% CO2 for 6 days. Then, cell proliferation assay was performed using the CellTiter-Glo (manufacturer: Promega, Cat. No. G9242), and luminescence signals were read using a multifunctional microplate reader (model: Synergy H1, manufacturer: BiotTek). IC50 values were calculated by fitting of the concentration-response curves with a four-parameter analysis method using GraphPad Prism software.

[2] = system: human acute myeloid leukemia MV-4-11 cells; assay: Assay of cell proliferation (CellTiter-Glo); type: cell-based; conditions: MV4-11, 144 h, 6 days, read-out: MV-4-11 IC50 of cell proliferation inhibitory activity
Experimental: as §3
(§4) The cell proliferation assays of human colon cancer HCT-116 cells, human breast cancer MCF-7 cells, human breast cancer HCC1806 cells, human acute myeloid leukemia MV-4-11 cells, and human gastric cancer MKN1 cells were performed according to the same method, with different inoculation densities set according to different cell growth characteristics.

[3] = system: human breast cancer HCC1806 cells; assay: Assay of cell proliferation (CellTiter-Glo); type: cell-based; conditions: Homo sapiens, 144 h, 6 days, read-out: HCC1806 IC50 of cell proliferation inhibitory activity
Experimental: as §3, §4

[4] = system: human gastric cancer MKN1 cells; assay: Assay of cell proliferation (CellTiter-Glo); type: cell-based; conditions: Homo sapiens, MKN-1, 144 h; MNK1, 6 days; read-out: MKN1 IC50 of cell proliferation inhibitory activity
Experimental: as §3, §4

SMILES	IC50 (CDK2/cyclin E) [nM]	IC50 (CDK4/cyclin D1) [nM]	IC50 (CDK9/cyclin T1) [nM]	IC50 (CDK6/cyclin D3) [nM]	IC50 [1] [nM]	IC50 [2] [nM]	IC50 [3] [nM]	IC50 [4] [nM]
CC(C)n1nnc2ccc3cnc(Nc4ccc(C(=O)N5CC[C@H](F)C5)cc4)nc3c21 [Example I-1, (S)-(3-Fluoropyrrolidin-1-yl)(4-((1-isopropyl-1H-[1,2,3]triazolo[4,5-H]quinazolin-8-yl)amino)phenyl)methanone]	0.2	2	9	13	119	17	223	45
CC(C)n1nnc2ccc3cnc(Nc4ccc(C(=O)N5CC[C@@H](F)C5)cc4)nc3c21 [Example I-2, (R)-(3-Fluoropyrrolidin-1-yl)(4-((1-isopropyl-1H-[1,2,3]triazolo[4,5-H]quinazolin-8-yl)amino)phenyl)methanone]	0.3	2	8	12	94	15	175	46
CC(C)n1nnc2ccc3cnc(Nc4ccc(C(=O)N5CC[C@@H](N)C5)cc4)nc3c21 [Example I-5, (R)-(3-Aminopyrrolidin-1-yl)(4-((1-isopropyl-1H-[1,2,3]triazolo[4,5-H]quinazolin-8-yl)amino)phenyl)metha none]	0.07	0.8	7	10	12	3	53	11
CN[C@H]1CCN(C(=O)c2ccc(Nc3ncc4ccc5nnn(C(C)C)c5c4n3)cc2)C1 [Example I-6, (S)-(4-((1-Isopropyl-1H-[1,2,3]triazolo[4,5-H]quinazolin-8-yl)amino)phenyl)(3-(methylamino)pyrrolidin-1-yl)methanone]	0.06	0.5	2	3	26	2	73	7
CC(C)N[C@H]1CCN(C(=O)c2ccc(Nc3ncc4ccc5nnn(C(C)C)c5c4n3)cc2)C1 [Example I-8, (S)-(4-((1-Isopropyl-1H-[1,2,3]triazolo[4,5-H]quinazolin-8-yl)amino)phenyl)(3-(isopropylamino)pyrrolidin-1-yl)methanone]	0.1	0.8	3	19	7	2	16	4
CC(C)N[C@@H]1CCN(C(=O)c2ccc(Nc3ncc4ccc5nnn(C(C)C)c5c4n3)cc2)C1 [Example I-9, (R)-(4-((1-Isopropyl-1H-[1,2,3]triazolo[4,5-H]quinazolin-8-yl)amino)phenyl)(3-(isopropylamino)pyrrolidin-1-yl)methanone]	0.2	1	2	15	26	3	53	11
CC(C)n1nnc2ccc3cnc(Nc4ccc(C(=O)N5CC[C@@H](N(C)C)C5)cc4)nc3c21 [Example I-11, (R)-(3-(Dimethylamino)pyrrolidin-1-yl)(4-((1-isopropyl-1H-[1,2,3]triazolo[4,5-H]quinazolin-8-yl)amino)phenyl)metha none]	0.08	0.7	2	6	148	4	122	29
CC(C)n1nnc2ccc3cnc(Nc4ccc(C(=O)N5CCC(N)CC5)c(F)c4)nc3c21 [Example I-16, (4-Aminopiperidin-1-yl)(2-fluoro-4-((1-isopropyl-1H-[1,2,3]triazolo[4,5-H]quinazolin-8-yl)amino)phenyl)metha none]	4	12	78	230	90	9	374	110
CC(C)n1nnc2ccc3cnc(Nc4ccc(C(=O)N5CCC(N(C)C)CC5)c(F)c4)nc3c21 [Example I-17, (4-(Dimethylamino)piperidin-1-yl)(2-fluoro-4-((1-isopropyl-1H-[1,2,3]triazolo[4,5-H]quinazolin-8-yl)amino)phenyl)metha none]	0.8	2	60	190	93	12	319	46
CC(C)n1nnc2ccc3cnc(Nc4ccc(C(=O)N5CCC(F)CC5)cc4)nc3c21 [Example I-18, (4-Fluoropiperidin-1-yl)(4-((1-isopropyl-1H-[1,2,3]triazolo[4,5-H]quinazolin-8-yl)amino)phenyl)metha none]	2	5	25	35	214	23	247	129
CC(C)n1nnc2ccc3cnc(Nc4ccc(C(=O)N5CCN[C@@H](C)C5)cc4)nc3c21 [Example I-20, (S)-(4-((1-Isopropyl-1H-[1,2,3]triazolo[4,5-H]quinazolin-8-yl)amino)phenyl)(3-methylpiperazin-1-yl)methanone]	1	1	3	16	39	6	109	23
CC(C)n1nnc2ccc3cnc(Nc4ccc(C(=O)N5CCN[C@H](C)C5)cc4)nc3c21 [Example I-21, (R)-(4-((1-Isopropyl-1H-[1,2,3]triazolo[4,5-H]quinazolin-8-yl)amino)phenyl)(3-methylpiperazin-1-yl)methanone]	0.5	1	2	14	35	4	112	31
